Laboratory results as given in patent US20230133672A1, “FUSION POLYPEPTIDE COMPRISING GDF15 AND POLYPEPTIDE REGION CAPABLE OF O-GLYCOSYLATION” (LG CHEM, LTD., priority 2019, published 2023).

Assay: Repeated administration: body weight change in DIO mice
Assay type: in vivo, Mouse, C57BL/6J-DIO
Protocol: The body weight of each mouse was measured on the day of the start of administration of the test substances (before administration), and thereafter, the body weight was measured every day ([…]), and the amount of the administration solution of the test substances was determined on the basis of the most recently measured body weight.
All the experimental results obtained in the present example were expressed as mean±standard error and tested using Prism5 (version 5.01). One-way analysis of variance (ANOVA) was performed on all data, and when significance was observed, Dunnett's test was performed to find out the test groups with a significant difference from the control group (significance level: two-sided 5% and 1%, 0.1%).
Except for the administration dose, animal number and administration cycle, most of the test processes were the same as in Example 2.1.1 above.
The test substances were administered twice a week (Days 0, 4, 7, 11, 14, 18, 21, 25) for a total of 8 times. For comparison, the control group in which the control substance Semaglutide was administered every day was prepared, and the comparison group in which Semaglutide was administered every day was administered once a day daily, and all the administration was progressed from 9 AM.

HT-ID3-GDF15: Fusion polypeptide: His-Tag, TEV cleavage site, three IgD hinges, GS linker, GDF15 (SEQ ID NO: 3)
Body Weight, Mean (Day 0, 3 nmol/kg twice a week): 100.0 % of initial
Body Weight, Mean (Day 0, 10 nmol/kg twice a week): 100.0 % of initial
Body Weight, Mean (Day 0, 30 nmol/kg twice a week): 100.0 % of initial
Body Weight, Mean (Day 1, 3 nmol/kg twice a week): 98.2 % of initial
Body Weight, Mean (Day 1, 10 nmol/kg twice a week): 98.5 % of initial
Body Weight, Mean (Day 1, 30 nmol/kg twice a week): 98.2 % of initial
Body Weight, Mean (Day 2, 3 nmol/kg twice a week): 96.9 % of initial
Body Weight, Mean (Day 2, 10 nmol/kg twice a week): 97.3 % of initial
Body Weight, Mean (Day 2, 30 nmol/kg twice a week): 97.1 % of initial
Body Weight, Mean (Day 3, 3 nmol/kg twice a week): 95.6 % of initial
Body Weight, Mean (Day 3, 10 nmol/kg twice a week): 95.7 % of initial
Body Weight, Mean (Day 3, 30 nmol/kg twice a week): 95.8 % of initial
Body Weight, Mean (Day 4, 3 nmol/kg twice a week): 94.4 % of initial
Body Weight, Mean (Day 4, 10 nmol/kg twice a week): 94.6 % of initial
Body Weight, Mean (Day 4, 30 nmol/kg twice a week): 94.8 % of initial
Body Weight, Mean (Day 5, 3 nmol/kg twice a week): 92.8 % of initial
Body Weight, Mean (Day 5, 10 nmol/kg twice a week): 92.8 % of initial
Body Weight, Mean (Day 5, 30 nmol/kg twice a week): 92.8 % of initial
Body Weight, Mean (Day 6, 3 nmol/kg twice a week): 91.9 % of initial
Body Weight, Mean (Day 6, 10 nmol/kg twice a week): 91.5 % of initial
Body Weight, Mean (Day 6, 30 nmol/kg twice a week): 91.7 % of initial
Body Weight, Mean (Day 7, 3 nmol/kg twice a week): 91.0 % of initial
Body Weight, Mean (Day 7, 10 nmol/kg twice a week): 90.7 % of initial
Body Weight, Mean (Day 7, 30 nmol/kg twice a week): 90.8 % of initial
Body Weight, Mean (Day 8, 3 nmol/kg twice a week): 90.0 % of initial
Body Weight, Mean (Day 8, 10 nmol/kg twice a week): 89.8 % of initial
Body Weight, Mean (Day 8, 30 nmol/kg twice a week): 89.8 % of initial
Body Weight, Mean (Day 9, 3 nmol/kg twice a week): 89.6 % of initial
Body Weight, Mean (Day 9, 10 nmol/kg twice a week): 89.3 % of initial
Body Weight, Mean (Day 9, 30 nmol/kg twice a week): 89.8 % of initial
Body Weight, Mean (Day 10, 3 nmol/kg twice a week): 89.1 % of initial
Body Weight, Mean (Day 10, 10 nmol/kg twice a week): 88.7 % of initial
Body Weight, Mean (Day 10, 30 nmol/kg twice a week): 89.7 % of initial
Body Weight, Mean (Day 11, 3 nmol/kg twice a week): 91.5 % of initial
Body Weight, Mean (Day 11, 10 nmol/kg twice a week): 90.9 % of initial
Body Weight, Mean (Day 11, 30 nmol/kg twice a week): 92.0 % of initial
Body Weight, Mean (Day 12, 3 nmol/kg twice a week): 91.5 % of initial
Body Weight, Mean (Day 12, 10 nmol/kg twice a week): 89.8 % of initial
Body Weight, Mean (Day 12, 30 nmol/kg twice a week): 90.0 % of initial
Body Weight, Mean (Day 13, 3 nmol/kg twice a week): 92.3 % of initial
Body Weight, Mean (Day 13, 10 nmol/kg twice a week): 90.1 % of initial
Body Weight, Mean (Day 13, 30 nmol/kg twice a week): 90.4 % of initial
Body Weight, Mean (Day 14, 3 nmol/kg twice a week): 92.5 % of initial
Body Weight, Mean (Day 14, 10 nmol/kg twice a week): 91.0 % of initial
Body Weight, Mean (Day 14, 30 nmol/kg twice a week): 90.9 % of initial
Body Weight, Mean (Day 15, 3 nmol/kg twice a week): 92.6 % of initial
Body Weight, Mean (Day 15, 10 nmol/kg twice a week): 90.0 % of initial
Body Weight, Mean (Day 15, 30 nmol/kg twice a week): 89.3 % of initial
Body Weight, Mean (Day 16, 3 nmol/kg twice a week): 93.3 % of initial
Body Weight, Mean (Day 16, 10 nmol/kg twice a week): 91.2 % of initial
Body Weight, Mean (Day 16, 30 nmol/kg twice a week): 89.6 % of initial
Body Weight, Mean (Day 17, 3 nmol/kg twice a week): 94.0 % of initial
Body Weight, Mean (Day 17, 10 nmol/kg twice a week): 91.8 % of initial
Body Weight, Mean (Day 17, 30 nmol/kg twice a week): 90.4 % of initial
Body Weight, Mean (Day 18, 3 nmol/kg twice a week): 94.4 % of initial
Body Weight, Mean (Day 18, 10 nmol/kg twice a week): 92.3 % of initial
Body Weight, Mean (Day 18, 30 nmol/kg twice a week): 91.0 % of initial
Body Weight, Mean (Day 19, 3 nmol/kg twice a week): 95.0 % of initial
Body Weight, Mean (Day 19, 10 nmol/kg twice a week): 91.9 % of initial
Body Weight, Mean (Day 19, 30 nmol/kg twice a week): 90.0 % of initial
Body Weight, Mean (Day 20, 3 nmol/kg twice a week): 95.2 % of initial
Body Weight, Mean (Day 20, 10 nmol/kg twice a week): 91.2 % of initial
Body Weight, Mean (Day 20, 30 nmol/kg twice a week): 89.6 % of initial
Body Weight, Mean (Day 21, 3 nmol/kg twice a week): 95.8 % of initial
Body Weight, Mean (Day 21, 10 nmol/kg twice a week): 92.1 % of initial
Body Weight, Mean (Day 21, 30 nmol/kg twice a week): 90.4 % of initial
Body Weight, Mean (Day 22, 3 nmol/kg twice a week): 96.4 % of initial
Body Weight, Mean (Day 22, 10 nmol/kg twice a week): 92.1 % of initial
Body Weight, Mean (Day 22, 30 nmol/kg twice a week): 90.0 % of initial
Body Weight, Mean (Day 23, 3 nmol/kg twice a week): 97.1 % of initial
Body Weight, Mean (Day 23, 10 nmol/kg twice a week): 92.5 % of initial
Body Weight, Mean (Day 23, 30 nmol/kg twice a week): 90.0 % of initial
Body Weight, Mean (Day 24, 3 nmol/kg twice a week): 97.4 % of initial
Body Weight, Mean (Day 24, 10 nmol/kg twice a week): 93.2 % of initial
Body Weight, Mean (Day 24, 30 nmol/kg twice a week): 91.0 % of initial
Body Weight, Mean (Day 25, 3 nmol/kg twice a week): 97.6 % of initial
Body Weight, Mean (Day 25, 10 nmol/kg twice a week): 93.7 % of initial
Body Weight, Mean (Day 25, 30 nmol/kg twice a week): 91.5 % of initial
Body Weight, Mean (Day 26, 3 nmol/kg twice a week): 98.5 % of initial
Body Weight, Mean (Day 26, 10 nmol/kg twice a week): 94.2 % of initial
Body Weight, Mean (Day 26, 30 nmol/kg twice a week): 91.5 % of initial
Body Weight, Mean (Day 27, 3 nmol/kg twice a week): 98.0 % of initial
Body Weight, Mean (Day 27, 10 nmol/kg twice a week): 94.4 % of initial
Body Weight, Mean (Day 27, 30 nmol/kg twice a week): 91.2 % of initial
Body Weight, Mean (Day 28, 3 nmol/kg twice a week): 98.6 % of initial
Body Weight, Mean (Day 28, 10 nmol/kg twice a week): 94.1 % of initial
Body Weight, Mean (Day 28, 30 nmol/kg twice a week): 91.4 % of initial
